Test results as given in paper PMC6917776, “Discovery of a chemical probe for PRDM9” (Nature Communications, 2019).
Values joined by “and” are separate entries in the source; they are usually repeats but may differ in a detail not shown here. Equal values may be shown once. Read-outs that look alike come from different tables or passages of the source.

Tests used:
Test in all cases: Methyltransferase selectivity assay (SPA)
Type in all cases: biochemical
MLL1 trimeric complex = target: T1, MLL1 trimeric complex (Homo sapiens, UniProt Q03164)
T1 construct: purchased Structural Genomics Consortium (SGC Toronto) in-house methyltransferase panel
Method: (§1) Selectivity against methyltransferases were determined as described previously. Details of the assays are described in the supplementary methods.
(§2) Methyltransferase selectivity assay1
(§3) The effect of chemical probes and negative controls on the methyltransferase activities of protein, DNA and RNA methyltransferases was tested by radiometric assays using 3H-SAM. For proteins such as MLL1 trimeric, MLL3 pentameric, EZH1 (PRC2) pentameric, and EZH2 (PRC2) trimeric complexes, as well as G9a, GLP, SUV39H1, SUV39H2, SUV420H1, SUV420H2, SETD2, SETD8, SETDB1, SETD7, PRMT1, PRMT3, PRMT4, PRMT5/ MEP50 complex, PRMT6, PRMT7, PRMT8, PRMT9, PRDM9, SMYD2, SMYD3, DNMT1, and BCDIN3D the incorporation of a tritium-labeled methyl group into biotinylated substrate was monitored using scintillation proximity assay (SPA). Briefly, a 10 µL reaction containing 3H-SAM and substrate at concentrations close to the apparent Km values for each enzyme (balanced conditions) was prepared. The reactions were quenched with 10 µL of 7.5 M guanidine hydrochloride; 180 µL of 20 mM Tris buffer (pH 8.0) were added, and the mixture was transferred to a 96-well FlashPlate and incubated for 1 h. The counts per minute (CPM) was measured on a TopCount plate reader. The CPM in the absence of compound or enzyme was defined as 100% activity and background (0%), respectively, for each dataset. […]

SETD8 = target: T2, SETD8 (Homo sapiens, UniProt Q9NQR1)
T2 construct: purchased Structural Genomics Consortium (SGC Toronto) in-house methyltransferase panel
T2 sequence (Q9NQR1 1-393): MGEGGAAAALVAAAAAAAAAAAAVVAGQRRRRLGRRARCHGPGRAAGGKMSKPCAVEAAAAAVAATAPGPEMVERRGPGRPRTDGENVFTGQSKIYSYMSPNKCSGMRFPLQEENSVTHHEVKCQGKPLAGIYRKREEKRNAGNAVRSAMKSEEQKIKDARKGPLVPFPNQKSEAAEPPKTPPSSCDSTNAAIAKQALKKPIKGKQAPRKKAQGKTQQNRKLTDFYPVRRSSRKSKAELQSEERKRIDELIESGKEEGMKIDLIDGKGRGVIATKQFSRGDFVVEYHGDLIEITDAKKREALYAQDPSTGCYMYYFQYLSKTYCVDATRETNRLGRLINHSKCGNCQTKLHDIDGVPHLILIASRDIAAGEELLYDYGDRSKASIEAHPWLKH
Method: as §1, §2, §3

PRMT6 = target: T3, PRMT6 (Homo sapiens, UniProt Q96LA8)
T3 construct: purchased Structural Genomics Consortium (SGC Toronto) in-house methyltransferase panel
Method: as §1, §2, §3

PRMT9 = target: T4, PRMT9 (Homo sapiens, UniProt Q6P2P2)
T4 construct: purchased Structural Genomics Consortium (SGC Toronto) in-house methyltransferase panel
T4 sequence (Q6P2P2 1-845): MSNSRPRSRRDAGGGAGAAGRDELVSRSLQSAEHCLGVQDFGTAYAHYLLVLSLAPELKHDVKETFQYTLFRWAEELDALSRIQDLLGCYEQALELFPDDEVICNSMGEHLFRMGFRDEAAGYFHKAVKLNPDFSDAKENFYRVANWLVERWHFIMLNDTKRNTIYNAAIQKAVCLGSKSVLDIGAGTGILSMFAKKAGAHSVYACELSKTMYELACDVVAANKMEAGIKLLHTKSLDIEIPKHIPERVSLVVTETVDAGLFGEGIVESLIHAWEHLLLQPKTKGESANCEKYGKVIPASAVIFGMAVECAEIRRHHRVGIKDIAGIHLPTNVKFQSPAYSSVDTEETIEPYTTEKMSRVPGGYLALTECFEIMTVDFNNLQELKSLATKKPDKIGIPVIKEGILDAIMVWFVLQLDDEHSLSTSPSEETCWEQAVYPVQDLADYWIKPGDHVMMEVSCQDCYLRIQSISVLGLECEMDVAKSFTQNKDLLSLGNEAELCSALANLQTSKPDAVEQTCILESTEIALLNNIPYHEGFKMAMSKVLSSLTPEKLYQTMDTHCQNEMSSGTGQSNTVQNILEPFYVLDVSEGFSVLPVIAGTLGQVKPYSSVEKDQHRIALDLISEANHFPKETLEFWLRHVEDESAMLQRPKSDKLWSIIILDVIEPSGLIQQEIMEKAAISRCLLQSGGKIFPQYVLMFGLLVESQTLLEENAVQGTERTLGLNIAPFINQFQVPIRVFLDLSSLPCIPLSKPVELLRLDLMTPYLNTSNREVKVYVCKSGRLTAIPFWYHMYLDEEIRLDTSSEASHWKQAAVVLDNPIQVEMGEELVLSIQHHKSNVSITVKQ
Method: as §1, §2, §3

PRMT5/ MEP50 complex = target: T5, PRMT5/ MEP50 complex (Homo sapiens, UniProt O14744)
T5 construct: purchased Structural Genomics Consortium (SGC Toronto) in-house methyltransferase panel
Method: as §1, §2, §3

SUV39H1 = target: T6, SUV39H1 (Homo sapiens, UniProt O43463)
T6 construct: purchased Structural Genomics Consortium (SGC Toronto) in-house methyltransferase panel
T6 sequence (O43463 1-412): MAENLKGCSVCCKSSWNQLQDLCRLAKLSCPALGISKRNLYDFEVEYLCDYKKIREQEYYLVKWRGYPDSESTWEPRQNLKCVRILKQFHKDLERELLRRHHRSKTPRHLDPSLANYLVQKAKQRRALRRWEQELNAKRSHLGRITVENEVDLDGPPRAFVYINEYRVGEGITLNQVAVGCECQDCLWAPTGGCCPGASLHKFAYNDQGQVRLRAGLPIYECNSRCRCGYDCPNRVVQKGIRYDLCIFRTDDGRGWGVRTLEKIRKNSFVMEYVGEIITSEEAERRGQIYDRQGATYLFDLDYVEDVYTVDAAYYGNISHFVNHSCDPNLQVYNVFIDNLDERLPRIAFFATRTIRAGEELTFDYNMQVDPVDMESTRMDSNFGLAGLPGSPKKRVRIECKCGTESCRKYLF
Method: as §1, §2, §3

SUV39H2 = target: T7, SUV39H2 (Homo sapiens, UniProt Q9H5I1)
T7 construct: purchased Structural Genomics Consortium (SGC Toronto) in-house methyltransferase panel
Method: as §1, §2, §3

PRMT1 = target: T8, PRMT1 (Homo sapiens, UniProt Q99873)
T8 construct: purchased Structural Genomics Consortium (SGC Toronto) in-house methyltransferase panel
Method: as §1, §2, §3

[1] = 1µM compound, Exp1, Exp2, read-out: Activity %
[2] = 10µM compound, Exp1, Exp2, 10 µM
[3] = 10µM compound, Exp1, Exp2, read-out: Activity %

T7 sequence (Q9H5I1 whole entry): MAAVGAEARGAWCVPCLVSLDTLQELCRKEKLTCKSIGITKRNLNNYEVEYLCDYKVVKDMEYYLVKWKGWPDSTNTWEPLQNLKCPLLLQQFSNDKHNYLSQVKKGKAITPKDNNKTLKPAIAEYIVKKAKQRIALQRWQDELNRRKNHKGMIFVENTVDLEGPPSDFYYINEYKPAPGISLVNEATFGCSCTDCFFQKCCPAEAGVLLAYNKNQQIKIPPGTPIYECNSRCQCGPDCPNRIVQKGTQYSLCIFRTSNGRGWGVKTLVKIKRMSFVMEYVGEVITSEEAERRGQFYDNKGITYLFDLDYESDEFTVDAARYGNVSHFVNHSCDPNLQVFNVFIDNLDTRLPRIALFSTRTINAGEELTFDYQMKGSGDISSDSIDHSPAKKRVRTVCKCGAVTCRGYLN
T8 sequence (Q99873 whole entry): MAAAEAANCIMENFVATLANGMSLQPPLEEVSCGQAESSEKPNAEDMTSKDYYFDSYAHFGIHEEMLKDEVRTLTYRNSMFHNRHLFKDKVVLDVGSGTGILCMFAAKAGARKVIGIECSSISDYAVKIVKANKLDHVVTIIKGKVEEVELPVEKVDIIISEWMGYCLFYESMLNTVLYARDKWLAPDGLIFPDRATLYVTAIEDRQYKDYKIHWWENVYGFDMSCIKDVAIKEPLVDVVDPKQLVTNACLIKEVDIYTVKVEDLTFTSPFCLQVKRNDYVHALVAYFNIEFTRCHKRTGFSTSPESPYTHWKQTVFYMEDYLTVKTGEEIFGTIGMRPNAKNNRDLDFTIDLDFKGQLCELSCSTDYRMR
T5 sequence (O14744 whole entry): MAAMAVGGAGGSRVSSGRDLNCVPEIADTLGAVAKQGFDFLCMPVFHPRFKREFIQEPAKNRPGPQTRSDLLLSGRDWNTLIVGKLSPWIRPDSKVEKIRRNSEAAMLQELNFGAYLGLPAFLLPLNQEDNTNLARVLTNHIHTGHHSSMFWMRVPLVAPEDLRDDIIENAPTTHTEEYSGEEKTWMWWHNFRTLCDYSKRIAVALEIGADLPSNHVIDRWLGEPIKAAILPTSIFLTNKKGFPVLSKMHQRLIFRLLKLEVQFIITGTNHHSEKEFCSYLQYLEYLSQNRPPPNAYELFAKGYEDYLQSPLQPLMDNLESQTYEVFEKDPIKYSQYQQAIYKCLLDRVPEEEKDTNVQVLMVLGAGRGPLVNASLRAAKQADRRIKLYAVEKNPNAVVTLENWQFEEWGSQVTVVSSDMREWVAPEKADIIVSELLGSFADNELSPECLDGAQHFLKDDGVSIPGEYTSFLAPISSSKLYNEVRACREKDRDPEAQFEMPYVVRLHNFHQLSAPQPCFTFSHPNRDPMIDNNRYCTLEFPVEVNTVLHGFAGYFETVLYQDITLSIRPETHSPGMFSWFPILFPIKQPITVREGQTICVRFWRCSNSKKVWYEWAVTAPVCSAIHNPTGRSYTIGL
T5 sequence (Q9BQA1 whole entry partner): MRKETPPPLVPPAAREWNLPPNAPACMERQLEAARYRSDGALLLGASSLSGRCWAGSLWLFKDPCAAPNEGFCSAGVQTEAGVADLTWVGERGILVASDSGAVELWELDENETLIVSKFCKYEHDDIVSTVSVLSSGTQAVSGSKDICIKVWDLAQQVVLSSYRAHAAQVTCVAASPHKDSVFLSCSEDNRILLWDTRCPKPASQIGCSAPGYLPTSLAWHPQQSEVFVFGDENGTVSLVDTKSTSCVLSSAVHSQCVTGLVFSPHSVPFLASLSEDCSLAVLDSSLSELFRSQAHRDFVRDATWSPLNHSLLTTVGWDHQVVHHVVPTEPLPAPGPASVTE
T3 sequence (Q96LA8 whole entry): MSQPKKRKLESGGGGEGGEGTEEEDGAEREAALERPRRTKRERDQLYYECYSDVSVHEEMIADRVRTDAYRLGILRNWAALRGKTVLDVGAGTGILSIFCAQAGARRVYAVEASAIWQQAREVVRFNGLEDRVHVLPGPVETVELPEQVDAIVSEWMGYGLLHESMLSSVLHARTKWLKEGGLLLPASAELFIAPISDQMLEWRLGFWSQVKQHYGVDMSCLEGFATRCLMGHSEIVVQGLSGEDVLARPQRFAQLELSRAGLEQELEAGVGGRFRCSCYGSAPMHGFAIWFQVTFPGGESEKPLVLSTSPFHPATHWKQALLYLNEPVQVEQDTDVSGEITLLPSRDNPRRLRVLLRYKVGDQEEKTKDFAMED

COc1cc(OC)cc(-c2noc(N3CCN(C)C4(CCN(c5ccnc(C)c5)CC4)C3)n2)c1 [MRK-740]
Activity % (MLL1 trimeric complex; 1µM compound, Exp1, Exp2, 1 µM): 90%
activity at 1 µM (MLL1 trimeric complex; [1]): 96%
Activity % (MLL1 trimeric complex; [2]): 90%
activity at 10 µM (MLL1 trimeric complex; [3]): 94%
activity at 1 µM (SETD8; [1]): 99%
activity at 10 µM (SETD8; [3]): 101%
Activity % (PRMT6; 1µM compound, Exp1, Exp2, 1 µM): 94%
activity at 1 µM (PRMT6; [1]): 98%
Activity % (PRMT6; [2]): 93%
activity at 10 µM (PRMT6; [3]): 98%
activity at 1 µM (PRMT9; [1]): 100%
Activity % (PRMT9; [2]): 89% and 114%
activity at 1 µM (PRMT5/ MEP50 complex; [1]): 90%
activity at 10 µM (PRMT5/ MEP50 complex; [3]): 94%
Activity % (SUV39H1; 1µM compound, Exp1, Exp2, 1 µM): 85%
activity at 1 µM (SUV39H1; [1]): 84%
Activity % (SUV39H1; [2]): 80%
activity at 10 µM (SUV39H1; [3]): 84%
Activity % (SUV39H2; 1µM compound, Exp1, Exp2, 1 µM): 89%
activity at 1 µM (SUV39H2; [1]): 92%
Activity % (SUV39H2; [2]): 90%
activity at 10 µM (SUV39H2; [3]): 92%
Activity % (PRMT1; 1µM compound, Exp1, Exp2, 1 µM): 96%
activity at 1 µM (PRMT1; [1]): 94%
Activity % (PRMT1; [2]): 89%
activity at 10 µM (PRMT1; [3]): 91%

COc1cc(OC)cc(-c2noc(N3CCN(C)C4(CCN(c5ccccc5)CC4)C3)n2)c1 [MRK-740 -NC]
activity at 1 µM (MLL1 trimeric complex; 1µM compound, Exp1, Exp2): 95%
activity at 10 µM (MLL1 trimeric complex; 10µM compound, Exp1, Exp2): 98%
Activity % (MLL1 trimeric complex; [2]): 97%
activity at 1 µM (SETD8; 1µM compound, Exp1, Exp2): 107%
Activity % (SETD8; 1µM compound, Exp1, Exp2, 1 µM): 95%
activity at 10 µM (SETD8; 10µM compound, Exp1, Exp2): 94%
Activity % (SETD8; [2]): 92%
activity at 1 µM (PRMT6; 1µM compound, Exp1, Exp2): 98%
Activity % (PRMT6; 1µM compound, Exp1, Exp2, 1 µM): 97%
activity at 10 µM (PRMT6; 10µM compound, Exp1, Exp2): 96%
Activity % (PRMT6; [2]): 95%
activity at 1 µM (PRMT9; 1µM compound, Exp1, Exp2): 102%
Activity % (PRMT9; 1µM compound, Exp1, Exp2, 1 µM): 106%
activity at 10 µM (PRMT9; 10µM compound, Exp1, Exp2): 98%
activity at 1 µM (PRMT5/ MEP50 complex; 1µM compound, Exp1, Exp2): 108%
Activity % (PRMT5/ MEP50 complex; 1µM compound, Exp1, Exp2, 1 µM): 99%
activity at 10 µM (PRMT5/ MEP50 complex; 10µM compound, Exp1, Exp2): 95%
Activity % (PRMT5/ MEP50 complex; [2]): 102%
activity at 1 µM (SUV39H1; 1µM compound, Exp1, Exp2): 100%
Activity % (SUV39H1; 1µM compound, Exp1, Exp2, 1 µM): 104%
activity at 10 µM (SUV39H1; 10µM compound, Exp1, Exp2): 101%
activity at 1 µM (SUV39H2; 1µM compound, Exp1, Exp2): 93%
activity at 10 µM (SUV39H2; 10µM compound, Exp1, Exp2): 86%
Activity % (SUV39H2; [2]): 96%
activity at 1 µM (PRMT1; 1µM compound, Exp1, Exp2): 108%
Activity % (PRMT1; 1µM compound, Exp1, Exp2, 1 µM): 109%
activity at 10 µM (PRMT1; 10µM compound, Exp1, Exp2): 105%
Activity % (PRMT1; [2]): 98%
